Columns and labels:
Type in all cases: cell-based
Escherichia coli = experiment: Traditional culture-based antimicrobial susceptibility test
Method in brief: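 Susceptibility of each E. coli isolate to each antimicrobial was determined the standard way: pathogens were grown, isolated and then exposed to the agents.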

[1] = test system: pathogens of clinical samples; experiment: Molecular phenotypic antimicrobial susceptibility test of clinical samples, direct PCR without a separate DNA purification step (Table 6)
Method in brief: (§1)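 Semi-quantitative PCR read-out: growth was taken as resistance and its absence as sensitivity, with DNA either purified (e.g. bead-based) or amplified directly from lysed sample without extraction. Before PCR, 0.5 McFarland dilutions of incubated clinical specimens were held 12-16 hours with breakpoint-level antimicrobials in culture media, beside a drug-free control.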

[2] = test system: pathogens of clinical samples; experiment: Molecular phenotypic antimicrobial susceptibility test of clinical samples, extraction DNA purification step prior to PCR (Table 6)
Method in brief: as §1

[3] = E. coli, clinical sample of r10-r24
[4] = E. coli, clinical sample of r158-r172
[5] = K. aerogenes, clinical sample of r136-r150
[6] = K. pneumoniae, clinical sample of r121-r135
[7] = M. morganii, clinical sample of r55-r69
[8] = M. morganii, clinical sample of r70-r84
[9] = P. mirabilis, clinical sample of r25-r39
[10] = P. mirabilis, clinical sample of r40-r54
[11] = S. aureus, clinical sample of r85-r92

Row | Structure (SMILES) | Traditional Culture Result (Escherichia coli; E. coli isolate 4 (Table 3)) | Traditional Culture Result (Escherichia coli; E. coli isolate 5 (Table 3)) | Molecular Antibiotic Susceptibility Result [1, 3] | Molecular Antibiotic Susceptibility Result [1, 4] | Molecular Antibiotic Susceptibility Result [1, 5] | Molecular Antibiotic Susceptibility Result [1, 6] | Molecular Antibiotic Susceptibility Result [1, 7] | Molecular Antibiotic Susceptibility Result [1, 8] | Molecular Antibiotic Susceptibility Result [1, 9] | Molecular Antibiotic Susceptibility Result [1, 10] | Molecular Antibiotic Susceptibility Result [2, 3] | Molecular Antibiotic Susceptibility Result [2, 4] | Molecular Antibiotic Susceptibility Result [2, 5] | Molecular Antibiotic Susceptibility Result [2, 6] | Molecular Antibiotic Susceptibility Result [2, 7] | Molecular Antibiotic Susceptibility Result [2, 8] | Molecular Antibiotic Susceptibility Result [2, 9] | Molecular Antibiotic Susceptibility Result [2, 10] | other results
1 | CO/N=C(\C(=O)N[C@@H]1C(=O)N2C(C(=O)[O-])=C(C[N+]3(C)CCCC3)CS[C@H]12)c1csc(N)n1 [Cefepime] | Resistant | Sensitive | Sensitive (Antimicrobial wells with pathogen load detected below the control wells (typically >2 cycle thresholds later) may be reported as Sensitive) | Sensitive (Antimicrobial wells with pathogen load detected below the control wells (typically >2 cycle thresholds later) may be reported as Sensitive) | Sensitive (Antimicrobial wells with pathogen load detected below the control wells (typically >2 cycle thresholds later) may be reported as Sensitive) | Sensitive (Antimicrobial wells with pathogen load detected below the control wells (typically >2 cycle thresholds later) may be reported as Sensitive) | Sensitive (Antimicrobial wells with pathogen load detected below the control wells (typically >2 cycle thresholds later) may be reported as Sensitive) | Sensitive (Antimicrobial wells with pathogen load detected below the control wells (typically >2 cycle thresholds later) may be reported as Sensitive) | Sensitive (Antimicrobial wells with pathogen load detected below the control wells (typically >2 cycle thresholds later) may be reported as Sensitive) | Sensitive (Antimicrobial wells with pathogen load detected below the control wells (typically >2 cycle thresholds later) may be reported as Sensitive) | Sensitive (Antimicrobial wells with pathogen load detected below the control wells (typically >2 cycle thresholds later) may be reported as Sensitive) | Sensitive (Antimicrobial wells with pathogen load detected below the control wells (typically >2 cycle thresholds later) may be reported as Sensitive) | Sensitive (Antimicrobial wells with pathogen load detected below the control wells (typically >2 cycle thresholds later) may be reported as Sensitive) | Sensitive (Antimicrobial wells with pathogen load detected below the control wells (typically >2 cycle thresholds later) may be reported as Sensitive) | Sensitive (Antimicrobial wells with pathogen load detected below the control wells (typically >2 cycle thresholds later) may be reported as Sensitive) | Sensitive (Antimicrobial wells with pathogen load detected below the control wells (typically >2 cycle thresholds later) may be reported as Sensitive) | Sensitive (Antimicrobial wells with pathogen load detected below the control wells (typically >2 cycle thresholds later) may be reported as Sensitive) | Sensitive (Antimicrobial wells with pathogen load detected below the control wells (typically >2 cycle thresholds later) may be reported as Sensitive) | Traditional Culture Result (Escherichia coli; E. coli isolate JJ1887): Resistant
2 | CO[C@@]1(NC(=O)Cc2cccs2)C(=O)N2C(C(=O)O)=C(COC(N)=O)CS[C@@H]21 [Cefoxitin] | Sensitive | Sensitive | Sensitive (Antimicrobial wells with pathogen load detected below the control wells (typically >2 cycle thresholds later) may be reported as Sensitive) | Sensitive (Antimicrobial wells with pathogen load detected below the control wells (typically >2 cycle thresholds later) may be reported as Sensitive) | Resistant | Sensitive (Antimicrobial wells with pathogen load detected below the control wells (typically >2 cycle thresholds later) may be reported as Sensitive) | Sensitive (Antimicrobial wells with pathogen load detected below the control wells (typically >2 cycle thresholds later) may be reported as Sensitive) | Sensitive (Antimicrobial wells with pathogen load detected below the control wells (typically >2 cycle thresholds later) may be reported as Sensitive) | Sensitive (Antimicrobial wells with pathogen load detected below the control wells (typically >2 cycle thresholds later) may be reported as Sensitive) | Sensitive (Antimicrobial wells with pathogen load detected below the control wells (typically >2 cycle thresholds later) may be reported as Sensitive) | Sensitive (Antimicrobial wells with pathogen load detected below the control wells (typically >2 cycle thresholds later) may be reported as Sensitive) | Sensitive (Antimicrobial wells with pathogen load detected below the control wells (typically >2 cycle thresholds later) may be reported as Sensitive) | Resistant | Sensitive (Antimicrobial wells with pathogen load detected below the control wells (typically >2 cycle thresholds later) may be reported as Sensitive) | Sensitive (Antimicrobial wells with pathogen load detected below the control wells (typically >2 cycle thresholds later) may be reported as Sensitive) | Sensitive (Antimicrobial wells with pathogen load detected below the control wells (typically >2 cycle thresholds later) may be reported as Sensitive) | Sensitive (Antimicrobial wells with pathogen load detected below the control wells (typically >2 cycle thresholds later) may be reported as Sensitive) | Sensitive (Antimicrobial wells with pathogen load detected below the control wells (typically >2 cycle thresholds later) may be reported as Sensitive) | Ct ([1]; E. coli, clinical sample of r10-r24, Ct control avg 12.97): 25.006; Ct ([1]; E. coli, clinical sample of r158-r172, Ct control avg 12.894): 29.986; Ct ([1]; K. aerogenes, clinical sample of r136-r150, Ct control avg 13.854): 13.468; Ct ([1]; K. pneumoniae, clinical sample of r121-r135, Ct control avg […]): 27.384; Ct ([1]; M. morganii, clinical sample of r55-r69, Ct control avg 12.09): 29.041; Ct ([1]; M. morganii, clinical sample of r70-r84, Ct control avg 11.677): 29.107; Ct ([1]; P. mirabilis, clinical sample of r25-r39, Ct control avg 11.801): 27.055; Ct ([1]; P. mirabilis, clinical sample of r40-r54, Ct control avg 10.06): 26.904; Molecular Antibiotic Susceptibility Result [1, 11]: Resistant; Ct ([1]; S. aureus, clinical sample of r85-r92, Ct control avg 20.309): 20.586; Ct ([2]; E. coli, clinical sample of r10-r24, Ct Control Avg 18.112): 26.364; Ct ([2]; E. coli, clinical sample of r158-r172, Ct Control Avg 20.146): 31.631; Ct ([2]; K. aerogenes, clinical sample of r136-r150, Ct Control Avg 19.994): 20.635; Ct ([2]; K. pneumoniae, clinical sample of r121-r135, Ct Control Avg 24.272): 32.55; Ct ([2]; M. morganii, clinical sample of r55-r69, Ct Control Avg 28.86): 37.168; Ct ([2]; M. morganii, clinical sample of r70-r84, Ct Control Avg 27.053): 35.243; Ct ([2]; P. mirabilis, clinical sample of r25-r39, Ct Control Avg 26.064): 29.443; Ct ([2]; P. mirabilis, clinical sample of r40-r54, Ct Control Avg 26.987): 30.603; Molecular Antibiotic Susceptibility Result [2, 11]: Resistant; Ct ([2]; S. aureus, clinical sample of r85-r92, Ct Control Avg 24.32): 15.037

Source: patent publication US20250290117A1, “MOLECULAR PHENOTYPIC ANTIMICROBIAL SUSCEPTIBILITY TESTING” (priority 2024, published 2025)
